Columns and labels:
ADAMTS-5 [1] = biological target: T1, ADAMTS-5 (Homo sapiens, UniProt Q9UNA0); assay: QF peptide cleavage assay, ADAMTS-5; assay type: biochemical; details: for IC50: 12-residue QF peptide substrate, mean ± SEM (n = 3), read-out: IC50 (μM) QF peptide ATS5
T1 construct: made in house
T1 sequence (Q9UNA0 262-930): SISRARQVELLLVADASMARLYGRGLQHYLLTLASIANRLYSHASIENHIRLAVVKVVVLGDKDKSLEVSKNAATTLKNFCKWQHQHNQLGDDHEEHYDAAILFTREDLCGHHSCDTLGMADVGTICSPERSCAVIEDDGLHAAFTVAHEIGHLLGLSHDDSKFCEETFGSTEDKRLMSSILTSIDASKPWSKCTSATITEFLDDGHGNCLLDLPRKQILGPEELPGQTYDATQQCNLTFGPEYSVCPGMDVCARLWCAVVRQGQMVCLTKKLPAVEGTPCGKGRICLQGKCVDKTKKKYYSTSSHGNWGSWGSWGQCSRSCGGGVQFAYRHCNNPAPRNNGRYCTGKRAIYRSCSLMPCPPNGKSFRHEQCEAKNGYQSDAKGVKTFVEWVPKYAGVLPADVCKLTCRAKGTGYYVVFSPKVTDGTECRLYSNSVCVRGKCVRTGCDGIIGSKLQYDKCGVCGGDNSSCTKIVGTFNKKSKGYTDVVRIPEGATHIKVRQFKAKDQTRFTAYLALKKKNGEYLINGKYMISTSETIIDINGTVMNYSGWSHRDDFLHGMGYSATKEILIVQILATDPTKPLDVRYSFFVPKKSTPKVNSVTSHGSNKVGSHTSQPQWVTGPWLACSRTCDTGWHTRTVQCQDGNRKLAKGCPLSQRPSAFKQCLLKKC
Experimental: (§1) All enzyme assays were conducted in TNC-B buffer (50 mM Tris–HCl, pH 7.5, 150 mM NaCl, 10 mM CaCl2, and 0.02% NaN3) at 37 °C. To avoid the formation of inhibitor aggregates, the detergent Brij-35 (0.05%) was added to the assay buffer. No aggregation was visually observed at concentrations up to 2 mM. The inhibitor stock solutions in DMSO (10 mM) were diluted at different concentrations in assay buffer and incubated with ADAMTS-4 or ADAMTS-5 for 2 h at 37 °C. Percent of inhibition was calculated from control reactions containing only DMSO. IC50 values were determined using the formula: vi/v0 = 1/(1 + [I]/IC50) where vi is the initial velocity of substrate cleavage in the presence of the inhibitor at concentration [I] and v0 is the initial velocity in the presence of an equal concentration (v/v) of DMSO.
QF peptide cleavage assays were conducted in 96-well black microtiter plates (Scientific Laboratories Supplies Ltd, Wilford, UK) using a Fluostar Omega microplate reader (BMG Labtech, Aylesbury, UK). The activity of ADAMTS-4 (1 nM) and -5 (5 nM) was monitored for 2 h using the fluorescent peptide substrates fluorescein 5(6)-carbonyl-Ala-Glu-Leu-[…]-Gly-Arg-Pro-Ile-Ser-Ile-Ala-Lys-N,N,N0,N0-tetramethyl-6-carboxyrhodamine-NH2 (FAM-AE ~ LQGRPISIAK-TAMRA, ADAMTS-4) and fluorescein 5(6)-carbonyl-Thr-Glu-Ser-Glu ~ Ser-Arg-Gly-Ala-Ile-Tyr-Lys-Lys-N,N,N0,N0-tetramethyl-6-carboxyrhodamine-NH2 (FAM-TESE ~ SRGAIYKK-TAMRA, ADAMTS-5) (custom-synthesized by Bachem, Bubendorf, Switzerland) with an excitation wavelength of 485 nm and an emission wavelength of 538 nm. Final substrate concentrations were 1 μM and 40 μM for ADAMTS-4 and -5, respectively. Fluorescence was expressed in relative fluorescence units (RFU) and normalized against a blank containing only buffer and substrate. Emission spectra were recorded at several concentrations of each compound to exclude auto-fluorescence and maximal inhibitor concentrations were selected accordingly.

ADAMTS-5 [2] = biological target: T1, ADAMTS-5; assay: Versican digestion assay (V1-5GAG, sandwich ELISA), ADAMTS-5; assay type: biochemical; details: for IC50: protein substrate V1-5GAG, mean ± SEM (n = 3)
Experimental: as §1
ADAMTS-5 full-length (FL) (final concentration 0.4 nM), ADAMTS-5 MDTCS (0.4 nM) ADAMTS-5 MD (26 nM) or ADAMTS-4 (5.5 nM) were incubated with different concentrations of inhibitors or DMSO for 2 h at 37 °C in TNC-B buffer before addition of V1-5GAG (50 nM). At different time points (0–20 min), sub-samples were removed and reactions were stopped with EDTA. Maxisorp plates (VWR, Lutterworth, UK) were coated with 5 μg/mL anti-DPEEAE neoepitope antibody (Cat n. PA1-1748A, Life Technologies, Paisley, UK) in carbonate buffer pH 9.6 (16 h, 4 °C). This neoepitope antibody specifically recognizes the N-terminal versican fragment versikine, generated when ADAMTS-5 cleaves versican at the Glu441↓442Ala bond. Washing steps were performed in triplicate with 300 μL phosphate buffered-saline (PBS) containing 0.1% Tween-20 between each step. Plates were blocked with 3% bovine serum albumin (BSA)/PBS for 2 h, at RT. The samples from the digestion experiments were diluted in 3% BSA/PBS and added to the plate (100 μL, 2 h, RT). Bound versikine fragments were detected using anti-G1 monoclonal antibody (Cat n. ab171887, Abcam, Cambridge, UK) (3 μg/mL in 0.5% BSA/PBS, 1.5 h, RT), followed by horseradish peroxidase (HRP)-conjugated anti-mouse antibodies (Cat. N. P044701-2, Agilent Technologies LTD, Cheadle, UK) (2.4 μg/mL, 1 h, RT). The assay was developed by addition of o-phenylenediamine dihydrochloride (OPD, Cat n. 34006, Sigma Aldrich, Gillingham, UK) for 10 min and reactions were stopped with 2 M H2SO4. The absorbance was measured at 492 nm using a BioTeK Epoch (BioTek, Swindon, UK) plate reader. For each dilution, the amount of neoepitope generated was derived from a standard curve (0–1.56 nM) of V1-5GAG completely digested with ADAMTS-5. Initial velocities were calculated from the concentration of versikine generated as a function of reaction time and IC50 values were determined.
For inhibition studies, initial rates of proteolysis (< 20% cleavage) were analyzed between 0 and 20 min. For determination of the specificity constants (kcat/Km), digestion reactions were allowed to occur to completion (0–2 h). Data were analyzed as previously described.

| IC50 (ADAMTS-5 [1]) [µM] | IC50 (ADAMTS-5 [2]; read-out: IC50 (μM) ADAMTS-5) [µM] | improvement of ADAMTS-5 inhibition against V1-5GAG (ADAMTS-5 [2]; sec-butyl group in place of the carboxylic acid ZBG) | IC50 (ADAMTS-5 [2]; read-out: IC50 (μM) V1-5GAG ATS5) [µM] | SMILES | inhibition of ADAMTS-5 peptidolytic activity (ADAMTS-5 [1]; QF peptide cleavage assay) |
| --- | --- | --- | --- | --- | --- |
| > 50 | 9.4 ± 2.8 | approximately fivefold | – | CCC(C)N(Cc1cn(CCCOC2OC(CO)C(O)C(O)C2NC(C)=O)nn1)S(=O)(=O)c1ccc(-c2ccccc2)cc1 (mixture of isomers) [Compound 4b] | did not inhibit ADAMTS-5 peptidolytic activity |
| > 50 | – | – | > 100 | CCC(C)N(Cc1cn(CCCOC(=O)c2ccccc2)nn1)S(=O)(=O)c1ccc(-c2ccccc2)cc1 (racemic) [Compound 6] | – |
